System: Wnt signaling
Assay: Wnt-Luc reporter assay for pathway inhibition of Wnt signaling
Assay type: cell-based, mouse (TM3 Wnt-Luc) or human (293 Wnt-Luc); not stated which
Conditions: Wnt-Luc reporter cells co-cultured with L-cell Wnt3a cells, 24 hours, luciferase signal reduced by 50%
Protocol: This example provides a method that is useful for evaluating test compounds for inhibition of Wnt signaling.
Mouse leydig cell TM3 cells (obtained from American Type Culture Collection, ATCC, Manassas, Va.) are cultured in 1:1 mixture of Ham's F12 medium and Dulbecco's modified Eagle's medium (Gibco/Invitrogen, Carlsbad, Calif.) supplemented with 2.5% FBS (Gibco/Invitrogen, Carlsbad, Calif.) and 5% horse serum (Gibco/Invitrogen, Carlsbad, Calif.), 50 unit/mL penicillin and 50 μg/mL of streptomycin (Gibco/Invitrogen, Carlsbad, Calif.) at 37° C. with 5% CO2 in air atmosphere. TM3 cells in a 10 cm dish are co-transfected with 8 μg of STF-reporter plasmid containing a luciferase gene driven by Wnt-responsive elements and 2 μg of pcDNA3.1-Neo (Gibco/Invitrogen, Carlsbad, Calif.) with 30 μL of FuGENE6 (Roche Diagnostics, Indianapolis, Ind.) following the manufacturer's protocol. Stable cell lines (TM3 Wnt-Luc) were selected with 400 μg/mL of G418 (Gibco/Invitrogen, Carlsbad, Calif.). The TM3 Wnt-Luc cells and L-cell Wnt3a cells (obtained from American Type Culture Collection, ATCC, Manassas, Va.; cultured in Dulbecco's modified Eagle's medium (Gibco/Invitrogen, Carlsbad, Calif.) supplemented with 10% FBS (Gibco/Invitrogen, Carlsbad, Calif.) and 50 unit/mL penicillin and 50 μg/mL of streptomycin (Gibco/Invitrogen, Carlsbad, Calif.) at 37° C. with 5% CO2 in air atmosphere) are trypsinized and co-cultured into a 384-well plate with DMEM medium supplemented with 2% FBS, and treated with different concentrations of a compound of the invention. After 24 hours, the firefly luciferase activities are assayed with the Bright-Glo™ Luciferase Assay System (Promega, Madison, Wis.). The IC50 is measured when the effect of the compound reduces the luminescence signal by 50%.
This example provides another method that is useful for evaluating test compounds for inhibition of Wnt signaling.
Human embryonic kidney 293 cells (obtained from American Type Culture Collection, ATCC, Manassas, Va.) are cultured in DMEM medium (Gibco/Invitrogen, Carlsbad, Calif.) supplemented with 10% FBS (Gibco/Invitrogen, Carlsbad, Calif.), 50 unit/mL penicillin and 50 μg/mL of streptomycin (Gibco/Invitrogen, Carlsbad, Calif.) at 37° C. with 5% CO2 in air atmosphere. 293 cells in a 10 cm dish are co-transfected with 8 μg of STF-reporter plasmid containing a luciferase gene driven by Wnt-responsive elements and 2 μg of pcDNA3.1-Neo (Gibco/Invitrogen, Carlsbad, Calif.) with 30 μL of FuGENE6 (Roche Diagnostics, Indianapolis, Ind.) following the manufacturer's protocol. Stable cell lines (293 Wnt-Luc) were selected with 400 μg/mL of G418 (Gibco/Invitrogen, Carlsbad, Calif.). The 293 Wnt-Luc cells and L-cell Wnt3a cells (obtained from American Type Culture Collection, ATCC, Manassas, Va.) are trypsinized and co-cultured into a 384-well plate with DMEM medium supplemented with 2% FBS, and treated with different concentrations of a compound of the invention. After 24 hours, the firefly luciferase activities are assayed with the Bright-Glo™ Luciferase Assay System (Promega, Madison, Wis.). The IC50 is measured when the effect of the compound reduces the luminescence signal by 50%.

Row | Structure (SMILES) | IC50
1 | O=C(NCc1ccc(-c2ccnnc2)cc1)c1ccc(-c2ccccc2)cc1 [compound 1, N-(4-(pyridazin-4-yl)benzyl)biphenyl-4-carboxamide] | 1.9 nM
2 | O=C(NCc1ccc(-c2ccnnc2)cc1)c1ccc(-c2cccc(F)c2)cc1 [compound 2, 4-(3-fluorophenyl)-N-{[4-(pyridazin-4-yl)phenyl]methyl}benzamide] | 0.95 nM
3 | O=C(NCc1ccc(N2CCS(=O)(=O)CC2)nc1)c1ccc(-c2cccc(F)c2)cc1 [compound 3, N-((6-(1,1-dioxidothiomorpholino)pyridin-3-yl)methyl)-3′-fluoro-[1,1′-biphenyl]-4-carboxamide] | 2.3 nM
4 | O=C(NCc1ccc(N2CCS(=O)(=O)CC2)nc1)c1ccc(-c2cccc(F)c2)nc1 [compound 4, N-((6-(1,1-dioxidothiomorpholino)pyridin-3-yl)methyl)-6-(3-fluorophenyl)nicotinamide] | 2.4 nM
5 | O=C(NCc1ccc(N2CCS(=O)(=O)CC2)nc1)c1ccc(-c2cccnc2)nc1 [compound 5, N-((6-(1,1-dioxidothiomorpholino)pyridin-3-yl)methyl)-[2,3′-bipyridine]-5-carboxamide] | 129 nM
6 | O=C(NCc1ccc(N2CCS(=O)(=O)CC2)nc1)c1ccc(-c2cccc(F)c2)cn1 [compound 6, 5-(3-Fluorophenyl)-N-((6-(1,1-dioxide-thiomorpholino)pyridin-3-yl)methyl)picolinamide] | 0.9 nM
7 | COC(=O)N1CCN(c2ccc(C(=O)NCc3ccc(N4CCS(=O)(=O)CC4)nc3)cc2)CC1 [compound 7, methyl 4-(4-(((6-(1,1-dioxidothiomorpholino)pyridin-3-yl)methyl)carbamoyl)phenyl)piperazine-1-carboxylate] | 19 nM
8 | O=C(NCc1ccc(N2CC[S+]([O-])CC2)nc1)c1ccc(-c2cccc(F)c2)cc1 [compound 8, 3′-fluoro-N-((6-(1-oxide-thiomorpholino)pyridin-3-yl)methyl)biphenyl-4-carboxamide] | 0.7 nM
9 | Cc1cc(-c2ccc(CNC(=O)c3ccc(-c4ccccc4)cc3)cc2)ccn1 [compound 9, N-{[4-(2-methylpyridin-4-yl)phenyl]methyl}-4-phenylbenzamide] | 0.06 nM
10 | O=C(NCc1ccc(-c2cccnc2)cc1)c1ccc(-c2ccccc2)cc1 [compound 10, N-(4-(pyridin-3-yl)benzyl)biphenyl-4-carboxamide] | 12.5 nM
11 | Cc1cc(-c2ccc(CNC(=O)c3ccc(-c4ccccc4)cn3)cc2)ccn1 [compound 11, N-{[4-(2-methylpyridin-4-yl)phenyl]methyl}-5-phenylpyridine-2-carboxamide] | 0.2 nM
12 | Cc1cc(-c2ccc(CNC(=O)c3ccc(-c4cccc(F)c4)cc3)cc2)ccn1 [compound 12, 4-(3-fluorophenyl)-N-{[4-(2-methylpyridin-4-yl)phenyl]methyl}benzamide] | 0.06 nM
13 | Cc1cc(-c2ccc(CNC(=O)c3ccc(-c4ccccn4)cc3)cc2)ccn1 [compound 13, N-(4-(2-methylpyridin-4-yl)benzyl)-4-(pyridin-2-yl)benzamide] | 0.1 nM
14 | COC(=O)N1CCN(c2ccc(C(=O)NCc3cnc(-c4ccnc(C(F)(F)F)c4)c(F)c3)cn2)CC1 [compound 14, methyl 4-{5-[({5-fluoro-6-[2-(trifluoromethyl)pyridin-4-yl]pyridin-3-yl}methyl)carbamoyl]pyridin-2-yl}piperazine-1-carboxylate] | 0.44 nM
15 | Cc1cc(-c2ccc(CNC(=O)c3ccc(-c4cncnc4)cc3)cc2F)ccn1 [compound 15, N-(3-fluoro-4-(2-methylpyridin-4-yl)benzyl)-4-(pyrimidin-5-yl)benzamide] | 0.01 nM
16 | Cc1cc(-c2ccc(CNC(=O)c3ccc(-c4cncnc4)cc3)cc2)ccn1 [compound 16, N-{[4-(2-methylpyridin-4-yl)phenyl]methyl}-4-(pyrimidin-5-yl)benzamide] | 0.05 nM

Row | Structure (SMILES) | IC50
17 | Cc1cc(-c2ccc(CNC(=O)c3ccc(-c4cnccn4)cc3)cc2)ccn1 [compound 17, N-{[4-(2-methylpyridin-4-yl)phenyl]methyl}-4-(pyrazin-2-yl)benzamide] | 0.06 nM
18 | Cc1cc(-c2ccc(CNC(=O)c3ccc(-c4cnccn4)cc3)cn2)ccn1 [compound 18, N-((2′-methyl-[2,4′-bipyridin]-5-yl)methyl)-4-(pyrazin-2-yl)benzamide] | 0.2 nM
19 | Cc1cc(-c2ccc(CNC(=O)c3ccc(-c4ccnnc4)nc3)cc2)ccn1 [compound 19, N-{[4-(2-methylpyridin-4-yl)phenyl]methyl}-6-(pyridazin-4-yl)pyridine-3-carboxamide] | 27 nM
20 | CC(=O)N1CCN(c2ccc(C(=O)NCc3ccc(-c4ccnc(C)c4)c(F)c3)cn2)CC1 [compound 20, 6-(4-Acetylpiperazin-1-yl)-N-(3-fluoro-4-(2-methylpyridin-4-yl)benzyl)nicotinamide] | 6.4 nM
21 | Cn1cc(-c2ccc(CNC(=O)c3ccc(-c4cnccn4)cc3)cc2F)ccc1=O [compound 21, N-(3-fluoro-4-(1-methyl-6-oxo-1,6-dihydropyridin-3-yl)benzyl)-4-(pyrazin-2-yl)benzamide] | 6.4 nM
22 | CC(=O)N1CCN(c2ccc(C(=O)NCc3ccc(-c4ccnc(C)c4)c(F)c3)nc2)CC1 [compound 22, 5-(4-acetylpiperazin-1-yl)-N-{[3-fluoro-4-(2-methylpyridin-4-yl)phenyl]methyl}pyridine-2-carboxamide] | 8.5 nM
23 | Cc1cc(-c2ccc(CNC(=O)c3ccc(-c4cccc(F)c4)cc3)cn2)ccn1 [compound 23, 4-(3-fluorophenyl)-N-{[6-(2-methylpyridin-4-yl)pyridin-3-yl]methyl}benzamide] | 0.1 nM
24 | O=C(NCc1ccc(-c2ccnc(F)c2)nc1)c1ccc(-c2cnccn2)cc1 [compound 24, N-((2′-fluoro-[2,4′-bipyridin]-5-yl)methyl)-4-(pyrazin-2-yl)benzamide] | 0.8 nM
25 | CN(C)c1ccc(-c2ccc(C(=O)NCc3ccc(-c4ccnc(F)c4)nc3)cn2)cn1 [compound 25, 6-[6-(dimethylamino)pyridin-3-yl]-N-{[6-(2-fluoropyridin-4-yl)pyridin-3-yl]methyl}pyridine-3-carboxamide] | 1.4 nM
26 | Cc1cc(-c2ccc(CNC(=O)c3ccc(-c4cccc(F)c4)cn3)cn2)ccn1 [compound 26, 5-(3-fluorophenyl)-N-{[6-(2-methylpyridin-4-yl)pyridin-3-yl]methyl}pyridine-2-carboxamide] | 0.5 nM
27 | Cc1cc(-c2ccc(CNC(=O)c3ccc(-c4cccc(F)c4)nc3)cn2)ccn1 [compound 27, 6-(3-fluorophenyl)-N-{[6-(2-methylpyridin-4-yl)pyridin-3-yl]methyl}pyridine-3-carboxamide] | 0.2 nM
28 | O=C(NCc1ccc(-c2ccnc(C(F)(F)F)c2)cc1)c1ccc(-c2cnccn2)cc1 [compound 28, 4-(Pyrazin-2-yl)-N-(4-(2-(trifluoromethyl)pyridin-4-yl)benzyl)benzamide] | 0.9 nM
29 | Cc1cc(-c2ccc(CNC(=O)c3ccc(-c4cccc(N(C)C)c4)cn3)cn2)ccn1 [compound 29, 5-[3-(dimethylamino)phenyl]-N-{[6-(2-methylpyridin-4-yl)pyridin-3-yl]methyl}pyridine-2-carboxamide] | 43 nM
30 | Cc1cc(CNC(=O)c2ccc(-c3cccc(F)c3)cn2)cnc1-c1ccnc(F)c1 [compound 30, N-((2′-fluoro-3-methyl-2,4′-bipyridin-5-yl)methyl)-5-(3-fluorophenyl)picolinamide] | 0.17 nM
31 | CC(=O)c1cccc(-c2ccc(C(=O)NCc3ccc(-c4ccnc(C)c4)nc3)nc2)c1 [compound 31, 5-(3-acetylphenyl)-N-{[6-(2-methylpyridin-4-yl)pyridin-3-yl]methyl}pyridine-2-carboxamide] | 8 nM
32 | O=C(NCc1ccc(-c2ccnc(C(F)(F)F)c2)nc1)c1ccc(-c2cnccn2)cc1 [compound 32, 4-(pyrazin-2-yl)-N-({6-[2-(trifluoromethyl)pyridin-4-yl]pyridin-3-yl}methyl)benzamide] | 0.7 nM

From US9181235B2, “Substituted pyridines for modulating the WNT signaling pathway” (NOVARTIS AG, priority 2010, dated 2015)
